Values after ≈ are worked out from the molar mass of the structure shown.
How the values were obtained:
[1] = tested on: Mycobacterium tuberculosis H37Rv; test: Minimum Inhibitory Concentration (MIC) determination, MABA assay; assay type: cell-based; conditions: 168 h, 7H9 medium, 7 days at 37° C., alamar blue, read-out: Mtb MIC
Experimental: To assess the bacterial growth inhibitory effect of the compounds of the invention, MABA assay was performed with log phase culture of Mycobacterium tuberculosis H37Rv. Bacterial culture of optical density 0.6-0.8 was diluted to final density of 0.02 in 7H9 medium. 100 μl of diluted Mycobacterium tuberculosis H37Rv was incubated with the test compounds in microtiter plate. A drug free control containing DMSO also was also prepared. Following incubation of the compound with culture for 7 days at 37° C., 20 μl of 0.02% alamar blue (freshly prepared) was added in each well. The color was allowed to develop for 16 h at 37° C. Blue color in the well indicated no growth whereas pink color signifies growth in the well. MIC value is defined as the lowest concentration that prevents the color change from blue to pink. Fluorescence was measured at excitation at 530 nm and emission at 590 nm.

[2] = Pharmacokinetics of the compounds in mice (IV and oral single dose); assay type: in vivo; conditions: mouse, plasma, Balb/c mice; for bioavailability: PO 3 mg/kg vs IV 1 mg/kg, read-out: F(%) absolute oral bioavailability; for AUC(0-t) / Cmax: single dose, Oral (PO) 3 mg/kg suspension, IV 1 mg/kg, route not given
Experimental: Balb/c mice were obtained from Zydus Research Centre, Ahmedabad India, AAALAC Accreditation. All animals were housed in temperature-control rooms with appropriate light/dark cycles. The animals were overnight fasted before oral gavage dosing but were given access to water ad libitum. Food was provided 4 h after dosing. All animal studies were conducted according to protocols reviewed and approved by the Institutional Animal Care and Ethics Committee at the Zydus Research Centre. Compounds were dosed as a solution in 10% NMP and 10% solutol in Normal Saline (Intravenous (IV), 1 mg/kg) and homogenous suspension (Oral (PO), 3 mg/kg) in 0.5% Tween 80 in 0.5% methyl cellulose as a single dose in mice. For mouse composite PK profile was generated. Blood samples were collected at 0.08 (IV only), 0.25, 0.5, 1, 2, 4, 6, 7.5, and 24 h post-dose in Na-heparin coated micro centrifuge tubes. Blood samples were centrifuged to separate plasma which were then stored at −70° C. until analysis. PK parameters were calculated by non-compartmental analysis using Phoenix (Pharsight Corp., Mountain View, Calif.). A model was selected based on the vascular (IV bolus) or extravascular (PO) routes of administration. For the PO route, concentration at time zero was assumed to be zero. Plasma concentrations below the limit of quantitation were treated as zero concentration for the purpose of calculating the mean plasma concentration values. Pharmacokinetic parameters such as maximum plasma concentration (Cmax), area under the curve of concentration over the time (AUC (0-t)) and absolute oral bioavailability (F (%)) of the selected compounds are shown in Table 3.

SMILES | MIC [1] | bioavailability [2] | AUC(0-t) [2] | Cmax [2]
COc1ncnc(Cn2nc(C(=O)NCC3(O)CC3)c3ncc(C)cc32)c1C [Example 1, N-((1-hydroxycyclopropyl)methyl)-1-((6-methoxy-5-methylpyrimidin-4-yl)methyl)-6-methyl-1H-pyrazolo[4,3-b]pyridine-3-carboxamide] | 1.25 µM (≈ 0.478 µg/mL) | 100% | 2850 ng·h/mL | 1730 ng/mL
CCOc1ncnc(Cn2nc(C(=O)NCC3(O)CC3)c3ncc(C)cc32)c1C [Example 3, 1-((6-ethoxy-5-methylpyrimidin-4-yl)methyl)-N-((1-hydroxycyclopropyl)methyl)-6-methyl-1H-pyrazolo[4,3-b]pyridine-3-carboxamide] | ≤ 0.625 µM | 100% | 2810 ng·h/mL | 2720 ng/mL
COc1nc(C)ccc1Cn1nc(C(=O)NCC2(O)CC2)c2ncc(C)cc21 [Example 9, N-((1-hydroxycyclopropyl)methyl)-1-((2-methoxy-6-methylpyridin-3-yl)methyl)-6-methyl-1H-pyrazolo[4,3-b]pyridine-3-carboxamide] | – | 78% | 2160 ng·h/mL | 1570 ng/mL
COCCNC(=O)c1nn(Cc2ncnc(OC)c2C)c2cc(C)cnc12 [Example 10, 1-((6-methoxy-5-methylpyrimidin-4-yl)methyl)-N-(2-methoxyethyl)-6-methyl-1H-pyrazolo[4,3-b]pyridine-3-carboxamide] | 5 µM (≈ 1.85 µg/mL) | 100% | 5130 ng·h/mL | 4000 ng/mL
COc1ncnc(Cn2cc(C(=O)NCC3(O)CC3)c3ncc(C)nc32)c1C [Example 11, N-((1-hydroxycyclopropyl)methyl)-5-((6-methoxy-5-methylpyrimidin-4-yl)methyl)-3-methyl-5H-pyrrolo[2,3-b]pyrazine-7-carboxamide] | 0.5 µM (≈ 0.191 µg/mL) | 100% | 2570 ng·h/mL | 1660 ng/mL
COc1cnc2c(C(=O)NCC3(O)CC3)cn(Cc3ncnc(OC)c3C)c2n1 [Example 12, N-((1-hydroxycyclopropyl)methyl)-3-methoxy-5-((6-methoxy-5-methylpyrimidin-4-yl)methyl)-5H-pyrrolo[2,3-b]pyrazine-7-carboxamide] | 0.25 µM (≈ 0.0996 µg/mL) | 100% | 2920 ng·h/mL | 1720 ng/mL
CCOc1ncnc(Cn2cc(C(=O)NCC3(O)CC3)c3ncc(C)nc32)c1C [Example 13, 5-((6-ethoxy-5-methylpyrimidin-4-yl)methyl)-N-((1-hydroxycyclopropyl)methyl)-3-methyl-5H-pyrrolo[2,3-b]pyrazine-7-carboxamide] | 0.25 µM (≈ 0.0991 µg/mL) | 100% | 2150 ng·h/mL | 1320 ng/mL
COc1ncnc(Cn2nc(C(=O)NCC3(O)CC3)c3ncc(C)nc32)c1C [Example 14, N-((1-hydroxycyclopropyl)methyl)-1-((6-methoxy-5-methylpyrimidin-4-yl)methyl)-6-methyl-1H-pyrazolo[3,4-b]pyrazine-3-carboxamide] | – | 90% | 1680 ng·h/mL | 1600 ng/mL
COc1ncnc(Cn2cc(C(=O)NCC3(O)CC3)c3ncc(C)cc32)c1C [Example 85, N-((1-hydroxycyclopropyl)methyl)-1-((6-methoxy-5-methylpyrimidin-4-yl)methyl)-6-methyl-1H-pyrrolo[3,2-b]pyridine-3-carboxamide] | ≤ 0.0625 µM | 94% | 2180 ng·h/mL | 1470 ng/mL

From US20210292333A1, “CONDENSED AZAHETEROARYL COMPOUNDS HAVING ANTIBACTERIAL ACTIVITY AGAINST TU[…]” (CADILA HEALTHCARE LIMITED, priority 2018, published 2021)
